From patent US6265433A, “LTA4 hydrolase inhibitors” (G. D. Searle & Company, priority 1999, dated 2001)
pIC50: −log10 of the molar value.

Key:
[1] = tested on: LTB4 production in calcium ionophore stimulated mouse blood; assay: Murine ex vivo LTB4 inhibition, calcium ionophore stimulated mouse blood after oral gavage; format: in vivo, mouse (adult male outbred mice); details: 1 h, blood collected 60 minutes after administration, ionophore A23187 20 mcg/ml, read-out: Murine Ex Vivo LTB4 Inhibition, % I LTB4 at 1 hour after administration of 10 mg/kg
From the text: (§1) One or more of three different assays, (1) an in vitro LTA hydrolase enzyme assay, (2) a human whole blood assay utilizing calcium ionophore stimulation, and (3) a murine ex vivo assay utilizing calcium ionophore stimulation were employed to determine the level of LTA hydrolase inhibitor activity.
Ex Vivo LTB4 and Thromboxane Production by Calcium lonophore Stimulated Mouse Blood for […] Inhibitor Activity
Leukotriene A4 hydrolase inhibitor compounds of the present invention were diluted to a predetermined concentration in phosphate buffered saline containing 2% DMSO and 1% Tween 80. The compounds were administered by oral gavage to adult male outbred mice weighing approximately 20-30 gm at a dose of 10 mg/kg body weight. (Compounds given at a dose of 50 mg/kg body weight are designated in following Table by the symbol, *) Sixty (60) minutes after administration of an LTA4 inhibitor compound of the invention, blood was collected (into heparin-containing tubes) from the retroorbital sinus. […] The mixture was incubated for 10 minutes at 37° C. in a humidified incubator. The reaction was terminated by centrifugation (833 g. 10 minutes at 4° C.). Supernatant were analyzed for LTB4 and thromboxane by commercially available enzyme-linked immunoassays [Caymen Chemical Co., Ann Arbor, Mich.] in accordance with the manufacturer's instructions. The percent inhibition was determined by comparison to animals treated identically except that the solution administered by oral gavage was devoid of inhibitor compound.

[2] = tested on: LTB4 production in calcium ionophore stimulated human blood; assay: Inhibition of calcium ionophore-induced LTB4 production in human blood (human whole blood assay); format: cell-based; details: human blood diluted 1:4; 15 minutes preincubation at 37° C.; calcium ionophore 20 mcg/ml, 10 minutes
From the text: as §1
LTB4 and Thromboxane Production by Calcium Ionophore Stimulated Human Blood for LTB4 Hydrolase Inhibitor Activity
One or more concentrations of the leukotriene A4 hydrolase inhibitor compounds being tested were prepared (diluted in DMSO) and 2 μl added and gently mixed with the diluted whole blood. After incubating for 15 minutes at 37° C. in a humidified incubator, calcium ionophore […] (Sigma Chemical Co., St. Louis, Mo.) was added to a final concentration of 20 mcg/ml and the incubation continued under the same conditions for an additional 10 minutes to allow LTB4 formation. The reaction was terminated by centrifugation (833 g, 10 minutes at 4° C.) and supernatant were analyzed for LTB4 and thromboxane by commercially available enzyme-linked immunoassays (Caymen Chemical Co., Ann Arbor, Mich.) according to the manufacturer's instructions. The IC50 of each test compound was determined from the amount of inhibition of LTB4 production as compared to an essentially identical assay in which no inhibitor compound was present.

[3] = target: T1, Recombinant Human LTA4 Hydrolase (Homo sapiens, UniProt P09960); assay: Recombinant Human LTA Hydrolase Assay (in vitro LTA hydrolase enzyme assay); format: biochemical; details: 250 ng rhLTA4 hydrolase; 10 minutes preincubation and 10 minutes reaction at room temperature; pH 7.4
T1 construct: made in house; host or cells: Spodoptera frugiperda Sf-9 cells (baculovirus)
T1 sequence (P09960 1-611): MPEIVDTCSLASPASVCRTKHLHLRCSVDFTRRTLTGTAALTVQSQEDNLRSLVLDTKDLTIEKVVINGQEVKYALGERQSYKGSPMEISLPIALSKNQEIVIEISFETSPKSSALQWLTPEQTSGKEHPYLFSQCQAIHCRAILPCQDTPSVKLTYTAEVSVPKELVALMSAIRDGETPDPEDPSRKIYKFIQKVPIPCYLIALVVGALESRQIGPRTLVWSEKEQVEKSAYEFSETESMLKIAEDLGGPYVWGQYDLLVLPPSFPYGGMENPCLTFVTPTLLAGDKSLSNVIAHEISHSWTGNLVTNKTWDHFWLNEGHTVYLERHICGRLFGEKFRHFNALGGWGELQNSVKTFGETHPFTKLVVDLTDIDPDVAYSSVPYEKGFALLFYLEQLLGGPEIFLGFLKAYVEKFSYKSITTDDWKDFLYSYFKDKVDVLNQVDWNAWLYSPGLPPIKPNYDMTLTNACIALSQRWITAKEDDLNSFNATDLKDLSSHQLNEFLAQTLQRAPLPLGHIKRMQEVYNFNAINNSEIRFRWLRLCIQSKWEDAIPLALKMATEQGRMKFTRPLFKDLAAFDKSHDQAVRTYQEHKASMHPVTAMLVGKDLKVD
Experimental: as §1
Recombinant Human LTA Hydrolase Assay for LTA Hydrolase Inhibitor Activity
Compounds of the present invention were tested for LTA hydrolase inhibitor activity against recombinant human LTA hydrolase (rhLTAH). […] Briefly, LTA hydrolase encoding DNA was amplified by polymerase chain reaction using a pair of oligonucleotide primers based on the nucleotide sequence from the 5'-end, and the complement of the 3'-end, of the coding region of the LTA hydrolase gene, the nucleotide sequence of which gene is known. […] A λgt11 human placental cDNA library (Clonetech, Palo Alto, Calif.) provided the nucleic acid template.
One or more predetermined amounts of a compound of the invention were incubated in assay buffer (0.1 M potassium phosphate, 5 mg/ml fatty acid free BSA, 10% DMSO, Ph 7.4) for 10 minutes at room temperature with 250 ng of recombinant hLTA4 H to allow binding, if any, between the enzyme and inhibitor. The stock enzyme solution was 1 mg/m. LTA4 hydrolase, 50 Mm Tris, Ph 8.0, 150 Mm NaCl, 2.5 Mm beta-mercaptoethanol, 50% glycerol. The specific activity of the enzyme was about 650 Nmoles/min/mg. LTA4 (i.e., substrate) was prepared from the methyl ester of LTA4 (Biomol, Inc., Plymouth Meeting, Pa.) by treating the methyl ester with 30 molar equivalents of LiOH at room temperature for 18 hours. The LTA4 substrate in its free acid form was kept frozen at -80° C. until needed. LTA4 (free acid) was thawed and diluted in assay buffer (minus DMSO) to a concentration of 350 ng/ml and 25 μl (8ng) of LTA4 substrate was added to the reaction mixture (total volume of reaction mixture=200 μl at time zero. Each reaction was carried out at room temperature for 10 minutes. The reaction was stopped by diluting 25 μl of the reaction mixture with 500 μl of the assay buffer without DMSO. […] was quantified in the diluted sample by a commercially available enzyme-linked immunoassay [Caymen Chemical Col. Ann Arbor, Mich.] using the method recommended in the manufacturer's instructions and compared to the amount of […] produced in a negative control (i.e., essentially identical conditions except without addition of an inhibitor compound). The IC50 was routinely calculated from the data produced.

[4] = tested on: LTA4 hydrolase; details: background statement; cited from earlier work

SMILES	inhibition at 10 mg/kg [1] [%]	pIC50 [2]	pIC50 [3]	LTA4 hydrolase inhibitory activity [4]
c1coc(-c2ccc(Oc3ccc(OCCN4CCCC4)cc3)cc2)n1 [Example 7]	93	6.26		
c1ccc(-c2ccc(Oc3ccc(OCCN4CCCC4)cc3)cc2)cc1 [Example 8]	57	6.85	8.18	
c1cc(Oc2ccc(C3=NCCO3)cc2)ccc1OCCN1CCCC1 [Example 10]	83	6.26	6.23	
CCOC(=O)C1CCN(CCOc2ccc(Oc3ccc(-c4ccccc4)cc3)cc2)CC1 [Example 11]	90	6.14	6.47	
O=C(O)C1CCN(CCOc2ccc(Oc3ccc(-c4ccccc4)cc3)cc2)CC1 [Example 12]	87	6.66		
COC(=O)CCN(C)CCCOc1ccc(Oc2ccc(-c3ccccc3)cc2)cc1 [Example 13]	63	6.10	6.26	
CN(CCCOc1ccc(Oc2ccc(-c3ccccc3)cc2)cc1)CCC(=O)O [Example 14]	78	6.72		
CN(CCCOc1ccc(Oc2ccc(-c3nccs3)cc2)cc1)CCC(=O)O [Example 17]	87	7.14	6.02	
CN(CCCOc1ccc(Oc2ccc(-c3ncco3)cc2)cc1)CCC(=O)O [Example 18]	94	6.72	7.57	
CCN(CCCOc1ccc(Oc2ccc(-c3ncco3)cc2)cc1)CCC(=O)O [Example 19]	93	6.62	6.47	
CC(C)C[C@H](NC(=O)[C@@H](O)[C@H](N)Cc1ccccc1)C(=O)O [bestatin]				exhibit LTA4 hydrolase inhibitory activity
C[C@H](CS)C(=O)N1CCC[C@H]1C(=O)O [captopril]				exhibit LTA4 hydrolase inhibitory activity
